Results: US7521580B1, “Non-cytotoxic synthetic analogues of (1E, 6E)-1, 7-Bis (4-hydroxy-3-methoxyphenyl)-1, 6-heptadiene-3, 5-Dione and therapeutic applications thereof in cystic fibrosis” (Sami Labs Ltd., priority 2008, dated 2009)

How the values were obtained:
JME/CF15 cells = assay: Intracellular calcium mobilization (Fluo-4, confocal microscopy) in JME/CF15 cells; assay type: cell-based, human; settings: 100 μM during 2 h, absence of extra cellular calcium
From the text: A number of epithelial chloride channels are calcium dependent. Therefore molecules which increase cytosolic calcium release or reduce calcium re-uptake by the intracellular stores may be beneficial to increase chloride secretion via a calcium-regulated chloride signaling pathway. Alternatively, a decrease in the activity calcium dependant proteins playing a vital role in retaining misfolded F508-CFTR in the ER may also seem a promising strategy in cystic fibrosis therapy.
JME/CF15 cells were loaded with 3 μM Fluo-4 acetoxymethyl (AM)ester for 20 min at room temperature in buffer solution containing: (in mM) 130 NaCl, 5.4 KCl, 2.5 CaCl2, 0.8 MgCl2, 5.6 glucose, 10 Hepes, pH 7.4 adjusted with Tris base), rinsed and allowed to equilibrate for 5-10 min. Ca2+ activity was recorded by confocal laser scanning microscopy using Bio-Rad MRC 1024 equipped with 15 mW Ar/Kr gas laser (Hemel Hempstead, UK). Maximal resolution was obtained with Olympus plan apo X60 oil, 1.4 NA, objective lens. Fluorescence signal collection was performed through the control software Lasersharp 3.2 (Bio-Rad). The resolution time was 30 s for the protocol in which cells are incubated 2 h in the presence of (1E,6E)-1,7-Bis(3,5-di-tert-butyl-4-hydroxyphenyl)-1,6-heptadiene-3,5-dione. All the experiments were performed at minimum on two different cell passages. […]

[1] = target: T1, F508del-CFTR chloride channel (Homo sapiens, UniProt P13569, DEL508-508); assay: Radiolabelled iodide efflux, F508del-CFTR chloride channel activity in JME/CF15 cells; assay type: cell-based; settings: 100 μM for 2 hours, stimulated with forskolin 10 μM plus genistein 30 μM
T1 construct: endogenous in cells; host or cells: JME/CF15 human nasal airway epithelial cells
Procedure: (§1) The human nasal airway epithelial cells JME/CF15 were cultured in 24-well plates to 90% confluence. (1E,6E)-1,7-Bis(3,5-di-tert-butyl-4-hydroxyphenyl)-1,6-heptadiene-3,5-dione was added at 100 μM for 2 hours, at 37° C., 5% CO2. After incubation, chloride channel activity was assayed by measuring the rate of radio labelled iodide (125 l) efflux using liquid handling robots. The compound was tested in quadruplicate. Cells were incubated in physiologic solution containing 1 μM Kl and 1 μCi Na 125 l/ml during 1 h at 37° C. Extra cellular 125 l was removed by 3 washes of cells, and the loss of intracellular 125 l is determined by removing the medium with physiological solution every minute for up to 9 min 6. A cocktail of forskolin (10 μM) plus genistein (30 μM) was added at the third minute to stimulate F508del-CFTR chloride channel activity. Statistics and curves were derived at using Graph Pad Software.

wt-CFTR channel = target: T2, wt-CFTR channel (Homo sapiens, UniProt P13569); assay: Iodide efflux, wild type CFTR chloride channel activity in CHO-CFTR-wt cells; assay type: cell-based; settings: 100 μM acute (no incubation) in presence of Forskolin 1 μM
T2 construct: expressed in transfected cells; host or cells: CHO-CFTR-wt cells
Procedure: as §1
To test the potency to stimulate wt-CFTR channel activity, CHO-CFTR-wt cells were cultured in 24-well plates to 90% confluence. Iodide efflux experiments were carried as described above. (1E,6E)-1,7-Bis(3,5-di-tert-butyl-4-hydroxyphenyl)-1,6-heptadiene-3,5-dione was added in the third minute in the presence or absence of Forskolin (1 μM). The compound was tested in acute (no incubation) at 100 μM in presence of Forskolin 1 μM. […]

[2] = MTT assay of cellular cytotoxicity; assay type: cell-based; settings: Chinese hamster, CHO-CFTR-wt cells, read-out: TC50; for CC50 at 2 h: 2 h incubation; for CC50 at 24 h: 24 h incubation
Procedure: The cytotoxicity of (1E,6E)-1,7-Bis(3,5-di-tert-butyl-4-hydroxyphenyl)-1,6-heptadiene-3,5-dione (representative of the molecules disclosed in the present invention) was assessed by MTT assay [[3-(4,5-dimethylthiazol-2-yl)-2,5-diphenyl tetrazolium bromide, measuring cellular dehydrogenase activity on CHO-CFTR-wt cell lines. The test is based on the principle that water soluble tetrazolium yellow salt MTT (Sigma®) is converted on purple formazan by mitochondrial dehydrogenase. Cells were grown to confluency in 96-well plates. After incubation with the test compound for 2 or 24 hours, at 37° C., […] of MTT (5 mg/ml) was added. After 4 h of incubation, culture medium was removed and 100 μl of DMSO per well added to solubilise formazan crystals. Optical density (OD) was measured at 570 nm and subtracted to these measured at 630 nm. The amount of purple formazan produced by treated cells is compared with these of untreated control cells (vehicle), dose-response curves were derived using GraphPad Software.

T2 sequence (P13569 whole entry): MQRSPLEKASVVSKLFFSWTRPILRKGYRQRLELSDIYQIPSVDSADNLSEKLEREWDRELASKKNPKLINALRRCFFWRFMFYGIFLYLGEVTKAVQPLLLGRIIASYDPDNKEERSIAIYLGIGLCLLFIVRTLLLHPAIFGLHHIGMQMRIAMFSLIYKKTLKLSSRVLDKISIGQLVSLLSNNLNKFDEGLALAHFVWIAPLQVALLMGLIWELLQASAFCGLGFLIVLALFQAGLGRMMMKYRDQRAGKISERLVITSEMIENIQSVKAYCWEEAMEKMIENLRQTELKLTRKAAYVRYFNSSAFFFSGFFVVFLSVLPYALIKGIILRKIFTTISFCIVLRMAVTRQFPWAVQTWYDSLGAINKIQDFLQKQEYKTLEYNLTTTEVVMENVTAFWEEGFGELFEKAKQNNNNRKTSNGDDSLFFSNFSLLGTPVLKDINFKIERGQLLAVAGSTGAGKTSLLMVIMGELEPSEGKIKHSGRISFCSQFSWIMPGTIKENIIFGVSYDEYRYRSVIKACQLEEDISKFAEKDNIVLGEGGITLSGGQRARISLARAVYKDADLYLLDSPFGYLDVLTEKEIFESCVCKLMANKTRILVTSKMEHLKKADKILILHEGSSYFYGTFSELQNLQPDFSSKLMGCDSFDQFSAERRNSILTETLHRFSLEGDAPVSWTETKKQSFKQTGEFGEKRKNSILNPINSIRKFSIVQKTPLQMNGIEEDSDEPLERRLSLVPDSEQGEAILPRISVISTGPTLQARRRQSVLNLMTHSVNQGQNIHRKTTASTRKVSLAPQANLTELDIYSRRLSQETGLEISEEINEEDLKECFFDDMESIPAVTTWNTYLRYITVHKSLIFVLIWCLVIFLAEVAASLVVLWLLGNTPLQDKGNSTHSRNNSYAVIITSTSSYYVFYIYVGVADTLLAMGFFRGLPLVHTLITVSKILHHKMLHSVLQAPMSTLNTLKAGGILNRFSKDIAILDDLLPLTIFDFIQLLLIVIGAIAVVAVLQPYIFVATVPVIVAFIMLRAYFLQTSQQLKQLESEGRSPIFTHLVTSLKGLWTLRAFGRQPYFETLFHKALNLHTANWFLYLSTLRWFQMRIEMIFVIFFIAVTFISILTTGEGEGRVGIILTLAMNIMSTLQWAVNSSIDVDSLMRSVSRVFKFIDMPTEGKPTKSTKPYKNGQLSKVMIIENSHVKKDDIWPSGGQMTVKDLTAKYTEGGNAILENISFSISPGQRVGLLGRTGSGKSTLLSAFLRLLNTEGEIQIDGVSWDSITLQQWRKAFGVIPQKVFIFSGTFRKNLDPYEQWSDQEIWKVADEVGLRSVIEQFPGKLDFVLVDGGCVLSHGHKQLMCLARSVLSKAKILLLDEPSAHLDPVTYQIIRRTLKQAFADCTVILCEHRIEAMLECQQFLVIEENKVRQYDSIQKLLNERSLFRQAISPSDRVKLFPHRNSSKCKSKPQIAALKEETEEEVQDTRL
T1 sequence (P13569 with tags, fused parts or gaps DEL508-508): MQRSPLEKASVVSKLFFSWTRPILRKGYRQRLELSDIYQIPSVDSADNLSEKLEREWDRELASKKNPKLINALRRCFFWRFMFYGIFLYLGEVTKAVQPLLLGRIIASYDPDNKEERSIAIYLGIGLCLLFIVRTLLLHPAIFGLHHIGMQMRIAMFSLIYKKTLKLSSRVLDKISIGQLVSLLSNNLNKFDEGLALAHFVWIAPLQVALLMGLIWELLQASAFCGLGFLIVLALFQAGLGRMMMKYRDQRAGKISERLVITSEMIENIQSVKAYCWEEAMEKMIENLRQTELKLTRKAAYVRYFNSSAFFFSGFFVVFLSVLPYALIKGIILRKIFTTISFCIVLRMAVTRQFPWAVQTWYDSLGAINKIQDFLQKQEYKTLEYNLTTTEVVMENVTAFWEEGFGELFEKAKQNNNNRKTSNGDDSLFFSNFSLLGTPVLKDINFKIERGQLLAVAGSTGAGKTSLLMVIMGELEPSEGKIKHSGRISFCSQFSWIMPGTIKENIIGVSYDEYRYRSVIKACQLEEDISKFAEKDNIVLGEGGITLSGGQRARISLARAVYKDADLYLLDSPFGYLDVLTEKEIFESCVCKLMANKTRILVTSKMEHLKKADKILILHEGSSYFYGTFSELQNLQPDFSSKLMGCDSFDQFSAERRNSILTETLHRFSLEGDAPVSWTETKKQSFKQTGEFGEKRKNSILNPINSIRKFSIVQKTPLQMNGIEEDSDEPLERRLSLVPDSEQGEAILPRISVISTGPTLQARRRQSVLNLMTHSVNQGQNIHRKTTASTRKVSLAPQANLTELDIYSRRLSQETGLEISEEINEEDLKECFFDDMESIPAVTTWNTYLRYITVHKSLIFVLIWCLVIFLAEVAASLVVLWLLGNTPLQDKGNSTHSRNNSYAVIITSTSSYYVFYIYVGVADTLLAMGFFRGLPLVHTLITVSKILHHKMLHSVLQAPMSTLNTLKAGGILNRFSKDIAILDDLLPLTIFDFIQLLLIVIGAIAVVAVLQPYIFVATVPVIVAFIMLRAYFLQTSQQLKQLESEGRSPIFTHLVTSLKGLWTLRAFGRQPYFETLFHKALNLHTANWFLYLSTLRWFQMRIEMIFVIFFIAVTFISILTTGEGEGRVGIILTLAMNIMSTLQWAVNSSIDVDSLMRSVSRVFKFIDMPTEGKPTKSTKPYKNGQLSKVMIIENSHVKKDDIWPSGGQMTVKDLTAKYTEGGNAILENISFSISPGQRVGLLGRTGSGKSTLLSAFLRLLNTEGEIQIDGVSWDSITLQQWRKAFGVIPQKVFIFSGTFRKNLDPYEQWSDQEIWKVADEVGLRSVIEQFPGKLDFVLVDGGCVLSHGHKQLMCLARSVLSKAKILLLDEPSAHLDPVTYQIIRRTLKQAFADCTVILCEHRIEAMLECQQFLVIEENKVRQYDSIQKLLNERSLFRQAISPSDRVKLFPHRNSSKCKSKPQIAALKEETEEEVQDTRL

SMILES	intracellular mobilization of Ca2+ (JME/CF15 cells)	restoration of F508del-CFTR protein at the plasma membrane (iodide efflux) [1]	melting point [°C]	wild-type CFTR chloride channel activity (wt-CFTR channel)	CC50 at 2 h [2] [µM]	CC50 at 24 h [2] [µM]
CC(C)(C)c1cc(/C=C/C(=O)CC(=O)/C=C/c2cc(C(C)(C)C)c(O)c(C(C)(C)C)c2)cc(C(C)(C)C)c1O [(1E,6E)-1,7-Bis(3,5-di-tert-butyl-4-hydroxyphenyl)-1,6-heptadiene-3,5-dione]	induced intracellular mobilization of Ca^2+	able to restore the F508del-CFTR protein at the plasma membrane of CF cells	192 to 196	insignificant wild-type CFTR chloride channel activity	> 100	> 100
COc1cc(/C=C/C(=O)CC(=O)/C=C/c2ccc(O)c(OC)c2)ccc1O [Curcumin, (1E,6E)-1,7-Bis(4-hydroxy-3-methoxyphenyl)-1,6-heptadiene-3,5-dione, reference compound]	–	–	–	–	50.1 ± 1.1	42.7 ± 1
